Results reported in ChEMBL document CHEMBL6078709, “Discovery of Cyclic Lipopeptides, Octaminomycins C and D, by Engineering LysR Transcriptional Regulator of Streptomyces sp” (J Nat Prod, 2024).
Positions of bridges follow the written chain, without caps; N, C: chain ends. Non-standard residues stand in square brackets, D forms with d. Residues, ends and D or L forms follow the SMILES beside them. *: point of attachment. NMeY = CN[C@@H](Cc1ccc(O)cc1)C(=O)O; Propionyl = CCC(=O)*

Tests used:
Type in all cases: functional, cell-based
[1] = test system: HUVEC; experiment: Antiangiogenic activity in human HUVEC cells assessed as inhibition of VEGF-induced tube formation incubated for 6 hrs by matrigel based inverted microscopic analysis
[2] = test system: MDA-MB-231; experiment: Antiproliferative activity against human MDA-MB-231 cells assessed as inhibition of cell growth incubated for 72 hrs by sulforhodamine B assay; conditions: MDA-MB-231, 72 h
[3] = test system: SK-HEP1; experiment: Antiproliferative activity against human SK-HEP1 cells assessed as inhibition of cell growth incubated for 72 hrs by sulforhodamine B assay; conditions: SK-HEP1, 72 h
[4] = test system: HCT-116; experiment: Antiproliferative activity against human HCT-116 cells assessed as inhibition of cell growth incubated for 72 hrs by sulforhodamine B assay; conditions: HCT-116, 72 h
[5] = test system: SNU-638; experiment: Antiproliferative activity against human SNU-638 cells assessed as inhibition of cell growth incubated for 72 hrs by sulforhodamine B assay; conditions: SNU-638, 72 h
[6] = test system: A549; experiment: Antiproliferative activity against human A549 cells assessed as inhibition of cell growth incubated for 72 hrs by sulforhodamine B assay; conditions: A549, 72 h

Row | SMILES | IC50 [1] [µM] | IC50 [2] [µM] | IC50 [3] [µM] | IC50 [4] [µM] | IC50 [5] [µM] | IC50 [6] [µM]
1 | CCC(=O)N[C@@H]1C(=O)N[C@@H](Cc2ccccc2)C(=O)N[C@H](CC(C)C)C(=O)N[C@@H](C(C)C)C(=O)N2CCC[C@H]2C(=O)N[C@@H](CC(C)C)C(=O)N(C)[C@@H](Cc2ccccc2)C(=O)N2CCC[C@H]2C(=O)O[C@@H]1C | > 40 | 12 | 13.1 | > 20 | > 20 | 12.3
2 | CCC(=O)N[C@@H]1C(=O)N[C@@H](Cc2ccccc2)C(=O)N[C@H](CC(C)C)C(=O)N[C@@H](C(C)C)C(=O)N2CCC[C@H]2C(=O)N[C@@H](CC(C)C)C(=O)N(C)[C@@H](Cc2ccc(O)cc2)C(=O)N2CCCC[C@H]2C(=O)O[C@@H]1C | > 40 | > 20 | 17.4 | > 20 | 17.2 | 15.5
3 | CC(=O)N[C@@H]1C(=O)N[C@@H](Cc2ccccc2)C(=O)N[C@H](CC(C)C)C(=O)N[C@@H](C(C)C)C(=O)N2CCC[C@H]2C(=O)N[C@@H](CC(C)C)C(=O)N(C)[C@@H](Cc2ccc(O)cc2)C(=O)N2CCC[C@H]2C(=O)O[C@@H]1C (Ac-TF[dL]VPL[NMeY]P; ester 1-C) | 28 | > 20 | 19 | > 20 | 16.8 | > 20
4 | CCC(=O)N[C@@H]1C(=O)N[C@@H](Cc2ccccc2)C(=O)N[C@H](CC(C)C)C(=O)N[C@@H](C(C)C)C(=O)N2CCC[C@H]2C(=O)N[C@@H](CC(C)C)C(=O)N(C)[C@@H](Cc2ccc(O)cc2)C(=O)N2CCC[C@H]2C(=O)O[C@@H]1C (Propionyl-TF[dL]VPL[NMeY]P; ester 1-C) | > 40 | > 20 | > 20 | > 20 | > 20 | > 20
5 | COc1cc([C@@H]2c3cc4c(cc3[C@@H](O[C@@H]3O[C@@H]5CO[C@@H](C)O[C@H]5[C@H](O)[C@H]3O)[C@H]3COC(=O)[C@H]23)OCO4)cc(OC)c1O [ETOPOSIDE] | – | 2.43 | 3.78 | 3.16 | 1.96 | 2.73
6 | CCN(CC)CCNC(=O)c1c(C)[nH]c(/C=C2\C(=O)Nc3ccc(F)cc32)c1C [SUNITINIB] | 3.5 | – | – | – | – | –
